# Activity calls are given as the source filed them. No cut-off for these calls is given here.
# Experiments:
# [1] = Solubility of compound in 5 % DMSO in water by HPLC-MS analysis; format: physicochemical
# A549 = experiment: Cytotoxicity against human A549 cells incubated for 72 hrs by MTS assay; format: functional, cell-based; settings: A549, 72 h
# [2] = Microsomal stability in human liver microsomes assessed as parent compound remaining at 2 uM incubated for 15 mins by RF-MS analysis; format: ADME, Microsome; settings: read-out: Stability
# CCRF-CEM [3] = experiment: Cell cycle arrest in human CCRF-CEM cells assessed as decrease in proportion of cells in S phase at 5 times IC50 measured after 24 hrs by propidium iodide/RNase staining based flow cytometry analysis; format: functional
# [4] = Stability in human plasma assessed as parent compound remaining at 2 uM incubated for 120 mins by RF-MS analysis; format: ADME, cell-free; settings: read-out: Stability
# BJ = experiment: Cytotoxicity against human BJ cells incubated for 72 hrs by MTS assay; format: cell-based
# CCRF-CEM [5] = experiment: Induction of apoptosis in human CCRF-CEM cells assessed as late apoptotic cells at 5 times IC50 concentration measured after 24 hrs by AnnexinV-FITC/propidium iodide staining based flow cytometry analysis (reference value: 0.1 %); format: functional
# CCRF-CEM [6] = experiment: Induction of apoptosis in human CCRF-CEM cells assessed as increase in BAX expression at 5 times IC50 concentration measured after 24 hrs by Western blot analysis; format: functional, cell-based
# [7] = Chemical stability of compound in PBS buffer assessed as parent compound remaining at 2 uM at pH 7.4 and 37 degC incubated for 30 mins by RF-MS analysis; format: physicochemical; settings: read-out: Stability
# [8] = Cytotoxicity against human K562-TAX cells incubated for 72 hrs by MTS assay; format: functional, cell-based
# CCRF-CEM [9] = experiment: Induction of mitochondrial membrane depolarization in human CCRF-CEM cells at 5 times IC50 measured after 24 hrs by JC-1 staining based flow cytometry analysis (reference value: 8.4 %); format: functional
# CCRF-CEM [10] = experiment: Induction of apoptosis in human CCRF-CEM cells assessed as early apoptotic cells at 5 times IC50 concentration measured after 24 hrs by AnnexinV-FITC/propidium iodide staining based flow cytometry analysis (reference value: 2.8 %); format: functional
# CCRF-CEM [11] = experiment: Induction of apoptosis in human CCRF-CEM cells assessed as activation of procaspase 8 at 5 times IC50 concentration measured after 24 hrs by Western blot analysis; format: functional, cell-based
# CCRF-CEM [12] = experiment: Induction of apoptosis in human CCRF-CEM cells assessed as decrease in Bcl-2 expression at 5 times IC50 concentration measured after 24 hrs by Western blot analysis; format: functional, cell-based
# CCRF-CEM [13] = experiment: Induction of apoptosis in human CCRF-CEM cells assessed as necrotic cells at 5 times IC50 concentration measured after 24 hrs by AnnexinV-FITC/propidium iodide staining based flow cytometry analysis (reference value: 0.1 %); format: functional
# [14] = Stability in human plasma assessed as parent compound remaining at 2 uM incubated for 60 mins by RF-MS analysis; format: ADME, cell-free; settings: read-out: Stability
# U2OS = experiment: Cytotoxicity against human U2OS cells incubated for 72 hrs by MTS assay; format: functional, cell-based
# [15] = Stability in human plasma assessed as parent compound remaining at 2 uM incubated for 30 mins by RF-MS analysis; format: ADME, cell-free; settings: read-out: Stability
# [16] = Protein binding in human plasma at 10 uM measured after 4 hrs by rapid equilibrium dialysis; format: ADME, cell-free; settings: read-out: PPB (converted)
# HCT-116 [17] = experiment: Cytotoxicity against human HCT116 cells incubated for 72 hrs by MTS assay; format: functional, cell-based; settings: HCT-116, 72 h
# CCRF-CEM [18] = experiment: Induction of apoptosis in human CCRF-CEM cells assessed as viable cells at 5 times IC50 concentration measured after 24 hrs by AnnexinV-FITC/propidium iodide staining based flow cytometry analysis (reference value: 97 %); format: functional
# [19] = Stability in human plasma assessed as parent compound remaining at 2 uM incubated for 15 mins by RF-MS analysis; format: ADME, cell-free; settings: read-out: Stability
# MRC5 = experiment: Cytotoxicity against human MRC5 cells incubated for 72 hrs by MTS assay; format: cell-based; settings: MRC5, 72 h
# [20] = Permeability of compound in PBS buffer assessed as permeability coefficient at pH 7.4 incubated for 18 hrs by PAMPA based RF-MS analysis; format: ADME; settings: pH 7.4, 18 h
# K562 = experiment: Cytotoxicity against human K562 cells incubated for 72 hrs by MTS assay; format: functional, cell-based; settings: K562, 72 h
# CCRF-CEM [21] = experiment: Cytotoxicity against human CCRF-CEM cells incubated for 72 hrs by MTS assay; format: functional, cell-based
# [22] = Solubility of compound in 10 % DMSO in water by HPLC-MS analysis; format: physicochemical
# [23] = Chemical stability of compound in PBS buffer assessed as parent compound remaining at 2 uM at pH 7.4 and 37 degC incubated for 15 mins by RF-MS analysis; format: physicochemical; settings: read-out: Stability
# CCRF-CEM [24] = experiment: Cell cycle arrest in human CCRF-CEM cells assessed as increase in G2/M phase accumulation at 5 times IC50 measured after 24 hrs by propidium iodide/RNase staining based flow cytometry analysis; format: functional
# [25] = Cytotoxicity against human CEM-DNR-bulk cells incubated for 72 hrs by MTS assay; format: functional, cell-based
# HCT-116 [26] = experiment: Cytotoxicity against p53 knockout human HCT116 cells incubated for 72 hrs by MTS assay; format: functional, cell-based; settings: HCT-116, 72 h
# [27] = Microsomal stability in human liver microsomes assessed as parent compound remaining at 2 uM incubated for 60 mins by RF-MS analysis; format: ADME, Microsome; settings: read-out: Stability
# [28] = Chemical stability of compound in PBS buffer assessed as parent compound remaining at 2 uM at pH 7.4 and 37 degC incubated for 120 mins by RF-MS analysis; format: physicochemical; settings: read-out: Stability
# [29] = Solubility of compound in 0.5 % DMSO in water by HPLC-MS analysis; format: physicochemical
# [30] = Microsomal stability in human liver microsomes assessed as parent compound remaining at 2 uM incubated for 30 mins by RF-MS analysis; format: ADME, Microsome; settings: read-out: Stability
# [31] = Chemical stability of compound in PBS buffer assessed as parent compound remaining at 2 uM at pH 7.4 and 37 degC incubated for 60 mins by RF-MS analysis; format: physicochemical; settings: read-out: Stability
# CCRF-CEM [32] = experiment: Induction of apoptosis in human CCRF-CEM cells assessed as increase in caspase 3/7 activity using Ac-DEVD-AMC as substrate at 5 times IC50 concentration measured after 24 hrs by fluorescence assay; format: functional, cell-based
# CCRF-CEM [33] = experiment: Induction of apoptosis in human CCRF-CEM cells assessed as activation of caspase 3 at 5 times IC50 concentration measured after 24 hrs by Western blot analysis; format: functional, cell-based
# CCRF-CEM [34] = experiment: Induction of apoptosis in human CCRF-CEM cells assessed as activation of PARP cleavage at 5 times IC50 concentration measured after 24 hrs by Western blot analysis; format: functional, cell-based
# CCRF-CEM [35] = experiment: Induction of apoptosis in human CCRF-CEM cells assessed as activation of caspase 7 at 5 times IC50 concentration measured after 24 hrs by Western blot analysis; format: functional, cell-based
"remaining at 0.25 h, 2 µM [2] [%]","remaining at 2 h, 2 µM [4] [%]","remaining at 0.5 h, 2 µM [7] [%]","remaining at 1 h, 2 µM [14] [%]","remaining at 0.5 h, 2 µM [15] [%]","remaining at 0.25 h, 2 µM [19] [%]","remaining at 0.25 h, 2 µM [23] [%]","remaining at 1 h, 2 µM [27] [%]","remaining at 2 h, 2 µM [28] [%]","remaining at 0.5 h, 2 µM [30] [%]",SMILES,IC50 (A549) [µM],IC50 (BJ) [µM],IC50 [8] [µM],IC50 (U2OS) [µM],IC50 (HCT-116 [17]) [µM],IC50 (MRC5) [µM],IC50 (K562) [µM],IC50 (CCRF-CEM [21]) [µM],IC50 [25] [µM],IC50 (HCT-116 [26]) [µM],further results
31,97.7,91.3,97.7,99.2,99.5,99.5,25.8,86.9,26,C=C(C)[C@@H]1CC[C@]2(C(=O)O)CC[C@]3(C)[C@H](CC[C@@H]4[C@@]5(C)Cc6sc(N)nc6C(C)(C)[C@@H]5CC[C@]43C)[C@@H]12,38.4,> 50,17.4,48,36.5,> 50,> 50,2.4,25.6,48.3,"solubility [1]: 45 µM; Activity (CCRF-CEM [3]): Active; Activity (CCRF-CEM [5]): 2.1%; Activity (CCRF-CEM [6]): Active; Activity (CCRF-CEM [9]): 62.2%; Activity (CCRF-CEM [10]): 20.2%; Activity (CCRF-CEM [11]): Active; Activity (CCRF-CEM [12]): Active; Activity (CCRF-CEM [13]): 0.8%; fraction unbound at 4 h, 10 µM [16]: 0.042; Activity (CCRF-CEM [18]): 76.9%; log(permeability) [20]: -5.34; solubility [22]: 89 µM; Activity (CCRF-CEM [24]): Active; Activity (CCRF-CEM [33]): Active; Activity (CCRF-CEM [34]): Active; solubility [29]: 26 µM; Activity (CCRF-CEM [35]): Active; remaining at 1 h, 2 µM [31]: 90.8%; Activity (CCRF-CEM [32]): Active"
97.7,99.9,96.1,99.9,99.6,99.3,99.3,90.8,76.3,93.4,CC(C)[C@@H]1CC[C@]2(C(=O)O)CC[C@]3(C)[C@H](CC[C@@H]4[C@@]5(C)Cc6sc(N)nc6C(C)(C)[C@@H]5CC[C@]43C)[C@@H]12,44.5,> 50,22.8,42.9,32.4,> 50,43.8,4.5,27,47.2,"Activity (CCRF-CEM [3]): Active; Activity (CCRF-CEM [5]): 0.4%; Activity (CCRF-CEM [6]): Active; Activity (CCRF-CEM [9]): 16.7%; Activity (CCRF-CEM [10]): 3.1%; Activity (CCRF-CEM [11]): Active; Activity (CCRF-CEM [12]): Active; Activity (CCRF-CEM [13]): 0.1%; fraction unbound at 4 h, 10 µM [16]: 0.015; Activity (CCRF-CEM [18]): 96.4%; log(permeability) [20]: -5.34; Activity (CCRF-CEM [24]): Active; remaining at 1 h, 2 µM [31]: 80.4%; Activity (CCRF-CEM [32]): Active"
62.9,14,99.4,56.8,94.6,99.5,99.5,1.6,69.8,35.5,CC(C)[C@@H]1CC[C@]2(C(=O)O)CC[C@]3(C)[C@H](CC[C@@H]4[C@@]5(C)CC(SC#N)C(=O)C(C)(C)[C@@H]5CC[C@]43C)[C@@H]12 (some centres undefined),12.5,5.8,5.4,15.1,3.5,4.6,3.4,0.9,14.5,3.4,"remaining at 1 h, 2 µM [31]: 90.6%"

# Continued, molecule first:
SMILES,"remaining at 0.25 h, 2 µM [2] [%]","remaining at 2 h, 2 µM [4] [%]","remaining at 0.5 h, 2 µM [7] [%]","remaining at 1 h, 2 µM [14] [%]","remaining at 0.5 h, 2 µM [15] [%]","remaining at 0.25 h, 2 µM [19] [%]","remaining at 0.25 h, 2 µM [23] [%]","remaining at 1 h, 2 µM [27] [%]","remaining at 2 h, 2 µM [28] [%]","remaining at 0.5 h, 2 µM [30] [%]",IC50 (A549) [µM],IC50 (BJ) [µM],IC50 [8] [µM],IC50 (U2OS) [µM],IC50 (HCT-116 [17]) [µM],IC50 (MRC5) [µM],IC50 (K562) [µM],IC50 (CCRF-CEM [21]) [µM],IC50 [25] [µM],IC50 (HCT-116 [26]) [µM],further results
CC1(C)CC[C@]2(C(=O)O)CC[C@]3(C)C(=CC[C@@H]4[C@@]5(C)Cc6sc(N)nc6C(C)(C)[C@@H]5CC[C@]43C)[C@@H]2C1,96.8,99.1,77,99.4,99.2,99.4,91.2,87.1,74.9,90,47.7,> 50,18.9,28.8,31,> 50,> 50,5.2,19.8,33.3,"solubility [1]: 45 µM; Activity (CCRF-CEM [3]): Active; Activity (CCRF-CEM [5]): 0.5%; Activity (CCRF-CEM [6]): Active; Activity (CCRF-CEM [9]): 23.4%; Activity (CCRF-CEM [10]): 12%; Activity (CCRF-CEM [11]): Active; Activity (CCRF-CEM [12]): Active; Activity (CCRF-CEM [13]): 0.1%; fraction unbound at 4 h, 10 µM [16]: 0.011; Activity (CCRF-CEM [18]): 87.4%; log(permeability) [20]: -7.16; solubility [22]: 91 µM; Activity (CCRF-CEM [24]): Active; solubility [29]: 27 µM; remaining at 1 h, 2 µM [31]: 74.8%; Activity (CCRF-CEM [32]): Active"
C=C(C)[C@@H]1CC[C@]2(C(=O)O)CC[C@]3(C)[C@H](CC[C@@H]4[C@@]5(C)CC(SC#N)C(=O)C(C)(C)[C@@H]5CC[C@]43C)[C@@H]12 (some centres undefined),90.1,7.6,67.5,35.7,75.9,99,99.9,56.8,69.8,86.4,21.2,19.8,16.6,20.2,3.3,18.7,28.5,2.4,6.8,11.9,"remaining at 1 h, 2 µM [31]: 54.2%"
C[C@H]1[C@H](C)CC[C@]2(C(=O)O)CC[C@]3(C)C(=CC[C@@H]4[C@@]5(C)CC(SC#N)C(=O)C(C)(C)[C@@H]5CC[C@]43C)[C@H]12 (some centres undefined),61,36.9,49.3,77.4,100,99.2,90.3,14.9,15.3,54.9,42.5,> 50,29,33.1,32.1,39.8,34.7,4.7,28.2,32.3,"remaining at 1 h, 2 µM [31]: 37.1%"
